According to US20230210813A1, “METHODS AND PHARMACEUTICAL COMPOSITIONS FOR THE TREATMENT OF CHRONIC KIDNEY DISEASE” (INSERM (INSTITUTE NATIONAL DE LA SANTÉ ET DE LA RECHERCHE …, priority 2020, published 2023):

Legend:
[1] = tested on: NF kappa B transcription factor complex; settings: cited from earlier work
[2] = tested on: patients with cancer; settings: Phase I, standardized doses; cited from earlier work
[3] = cited from earlier work
[4] = tested on: immune glomerulonephritis in rat; settings: cited from earlier work
[5] = tested on: type 2 diabetic db/db mice; settings: cited from earlier work
[6] = tested on: Ins2Akita mice (DKD); experiment: Ramipril treatment of diabetic Ins2Akita mice (first series); format: in vivo, mouse
Description: (§1) Male C57BL/6-Ins2Akita/J (Ins2Akita) and C57BL/6J (WT) mice (Charles River) were housed with unrestricted access to water and were maintained on a 12-h light-dark cycle in a pathogen-free environment on standard mouse chow. All experiments were conducted in accordance with the Guide for the care and use of laboratory animals of the National Institute of Health, eighth edition and the French Institute of Health guidelines for the care and use of laboratory animals. The project was approved by the local (Inserm/UPS US006 CREFRE) and national ethics committees (ethics committee for animal experiment, CEEA122; Toulouse, France; approval 02867.01).
(§2) In a first series of experiments, 2 months old mice were treated with or without ACEi ramipril (10 mg/kg/d in drinking water) for 2 months. In a second series of experiments 2 months old mice were treated with or without ACEi ramipril as in the first series or with dimethylaminoparthenolide monofumarate (DMAPT, 10 mg/kg/d by gavage) for 2 months. In each series of experiments, urine was collected in metabolic cages for 12 h, few days before sacrifice.
(§3) Urinary albumin concentration was measured by ELISA using the AlbuWell kit (WAK-Chemie Medical GmbH, Steinbach, Germany). Urinary creatinine concentration was measured by the colorimetric method of Jaffe according to the protocol Creatinine Assay Kit (Bio Assay Systems). Blood glucose levels were measured in caudal blood from fasted awake mice using a glucometer (Glucometer Elite XL; Bayer Healthcare, Elkhart, Ind.).
(§4) Comparison between 2 groups of values was implemented using a two-tailed unpaired Welch's t-tests. Comparison between more than 2 groups, was implemented using an ordinary one-way ANOVA followed by Homl-Sidak's multiple comparisons test was used. P<0.05 was considered statistically significant. For the proteomic data the P values were adjusted for the false discovery rate (Benjamini-Hochberg).

[7] = tested on: Ins2Akita mice (DKD); experiment: DMAPT versus ramipril treatment of diabetic Ins2Akita mice (second series, FIG. 1); format: in vivo, mouse; settings: for urinary albumin/creatinine ratio (ACR): 10 mg/kg/d for 2 months from 2 months of age, vs untreated DKD, FIG. 1A; for glomerular injury (PAS staining) / glomerular area / fibrosis (Masson trichrome staining) / glycemia / body weight: 10 mg/kg/d for 2 months; for glomerular injury (PAS staining): FIG. 1B; for glomerular area: FIG. 1C; for fibrosis (Masson trichrome staining): FIG. 1D; for glycemia: FIG. 1E; for body weight: FIG. 1F
Description: as §1, §2
Right kidney cortexes were fixed in Carnoy's solution for 24 h, dehydrated in successive baths with increasing alcohol concentrations, embedded in paraffin and 2 μm sections were cut and mounted, and stained with either periodic acid-Schiff (PAS) or Masson trichrome. Stained sections were scanned using a Nanozoomer 2.0 RS (Hamamatsu Photonics SARL) and treated with the Morpho-expert image-analysis software (version 1.00, Explora Nova) for renal corpuscle surface quantification. At least 50 glomeruli including superficial and […] cortical area, were examined for each animal. The extent of glomerular injury was expressed as the percentage of glomerular area fraction occupied by PAS positive matrix^3.
as §3, §4

[8] = fumarate salt; cited from earlier work
[9] = tested on: histone deacetylase (HDAC); settings: independent of NF kappa B; cited from earlier work
[10] = ramipril 10 mg/kg/d in drinking water for 2 months

| SMILES | activity of the NF kappa B transcription factor complex [1] | tolerability / dose-limiting toxicity [2] | water-solubility [3] | proteinuria and renal injury [4] | renal inflammation and insulin resistance [5] | body weight [6, 10] | glycemia [6, 10] | ACR ([6]; ramipril 10 mg/kg/d in drinking water from 2 months of age for 2 months) | urinary albumin/creatinine ratio (ACR) [7] | glomerular injury (PAS staining) [7] | glomerular area [7] | fibrosis (Masson trichrome staining) [7] | glycemia [7] | body weight [7] | oral bioavailability [8] | HDAC activity [9] |
| --- | --- | --- | --- | --- | --- | --- | --- | --- | --- | --- | --- | --- | --- | --- | --- | --- |
| C=C1C(=O)O[C@@H]2[C@H]3O[C@]3(C)CC/C=C(\C)CC[C@@H]12 [parthenolide, (1aR,4E,7aS,10aS,10bR)-2,3,6,7,7a,8,10a,10b-octahydro-1a,5-dimethyl-8-methylene-oxireno[9,10]cyclodeca[1,2-b]furan-9(1aH)-one] | inhibiting the activity | well tolerated without dose-limiting toxicity | poor water-solubility | beneficial impact | able to alleviate renal inflammation and insulin resistance | – | – | – | – | – | – | – | – | – | – | – |
| CCOC(=O)[C@H](CCc1ccccc1)N[C@@H](C)C(=O)N1[C@H](C(=O)O)C[C@@H]2CCC[C@@H]21 [ramipril] | – | – | – | – | – | no influence | slightly but significantly reduced | significantly reduced | significant reduction | no significant influence | no significant influence | no significant influence | Neither glycemia (FIG. 1E) nor body weight (FIG. 1F) were significantly influenced | Neither glycemia (FIG. 1E) nor body weight (FIG. 1F) were significantly influenced | – | – |
| C/C1=C/CC[C@@]2(C)O[C@@H]2[C@H]2OC(=O)[C@H](CN(C)C)[C@@H]2CC1 [DMAPT, (4E,8S)-8-[(dimethylamino)methyl]-2,3,6,7,7aS,8,10aS,10bR-octahydro-1aR,5-dimethyl-oxireno[9,10]cyclodeca[1,2-b]furan-9(1aH)-one] | – | – | water-soluble | – | – | – | – | – | significant reduction | significantly reduced | tended to reduce glomerular area without reaching significance | significantly reduced | Neither glycemia (FIG. 1E) nor body weight (FIG. 1F) were significantly influenced | Neither glycemia (FIG. 1E) nor body weight (FIG. 1F) were significantly influenced | orally bioavailable | inhibit histone deacetylase (HDAC) activity |
